In paper PMC11728001, “Design, Synthesis, and Biological Evaluation of Novel Urea-Containing Carnosic Acid Derivatives with Anticancer Activity” (International Journal of Molecular Sciences, 2024):

What was measured:
Assay type in all cases: cell-based
SW480 cells [1] = assay: Cell proliferation assay and cell doubling time; conditions: SW480 cells treated at IC50 concentration; control 42 h
Description: SW480 cells were seeded at a concentration of 1.68 × 10^5 cells per well in 6-well plates and incubated at 37 °C. […] Prior to treatment initiation (0 h), cells were trypsinized, washed with DPBS, and collected by centrifugation. The collected cells were resuspended in DPBS containing trypan blue and examined using an Invitrogen Countess 3 Automated Cell Counter (Thermo Fisher Scientific, Waltham, MA, USA) to determine the cell number and viability. This procedure was replicated at various treatment time points (24, 48, and 72 h) to generate a cell proliferation curve depicting the changes over time. Cell doubling time was calculated by dividing the natural logarithm of 2 by the growth rate.

SW480 cells [2] = assay: Cell cycle assay (PI, FACS); conditions: SW480, IC50 concentration
Description: SW480 cells were seeded in 6-well plates and treated as described for the apoptosis assay. After centrifugation, the cells were resuspended in 500 µL DPBS and added dropwise to 4.5 mL 70% (v/v) cold ethanol. The cell suspension was kept at −20 °C for a minimum of 4 h. The cell suspension was then centrifuged, washed with cold DPBS, resuspended in 360 µL DPBS containing 10 µL RNase (10 mg/mL), and incubated for 1 h, at 37 °C, with agitation. Before FACS analysis, 20 µL PI solution (1 mg/mL) was added to the samples. FACS analysis was performed using a Gallios flow cytometer (Beckman Coulter, Brea, CA, USA) at 488 nm. Data were acquired from 1 × 10^4 cells and subsequently analyzed using the multicycle software provided by Phoenix Flow Systems (San Diego, CA, USA).

CDK4 = assay: Western blot, CDK4 expression in SW480 cells; conditions: SW480, IC50 concentration, 24 and 72 h
Description: (§1) SW480 cells (1.68 × 10^5 cells/well) were seeded in 6-well plates and incubated at 37 °C for 24 h. […] At the end of the treatment period, cells were washed twice with ice-cold DPBS and incubated for 30 min. at 4 °C with lysis buffer containing 20 mM Tris-HCl (pH 7.5), 1 mM DTT, 0.2% Triton X-100, 1 mM Na-EDTA, 0.5 mM sodium deoxycholate, 1% proteases inhibitor cocktail, and 0.5% phosphatases inhibitor cocktail. The cells were scraped, sonicated, and centrifuged at 12,000× g for 20 min. at 4 °C. The supernatants were recovered, and the protein concentration was quantified using Pierce^TM BCA protein assay reagents A and B and Pierce^TM bovine serum albumin standard ampules (2 mg/mL).
(§2) Membranes were blocked with 5% skim milk in PBS-Tween-20 (0.1%) for 1 h at room temperature, following its incubation with the specific primary antibodies overnight at 4 °C (CDK4, CDK6, and SOD2 (MnSOD)). Exceptionally, the primary antibody against actin was only incubated for 30 min. at room temperature. The membranes were then washed with PBS-Tween-20 (0.1%) and incubated for 40 min. with an anti-mouse secondary antibody or for 1 h with an anti-rabbit secondary antibody. After incubation, the membranes were washed again with PBS-Tween-20 (0.1%) and treated with the Immobilon Western Chemiluminescent HRP Substrate Kit. […]

CDK6 = assay: Western blot, CDK6 expression in SW480 cells; conditions: SW480, IC50 concentration, 24, 48 and 72 h
Description: as §1, §2

CC(=O)Oc1c(C(C)C)cc2c(c1OC(C)=O)[C@@]1(NC(=O)NCCc3cccc(Cl)c3)CCCC(C)(C)[C@@H]1CC2 [Compound 14, (4bR,8aS)-4b-(3-(3-chlorophenethyl)ureido)-2-isopropyl-8,8-dimethyl-4b,5,6,7,8,8a,9,10-octahydrophenanthrene-3,4-diyl diacetate]
cell doubling time (SW480 cells [1]): 70 h
percentage of cells in the G0/G1 phase (SW480 cells [2]; 24 h, control 50.3%): 71%
percentage of cells in the G0/G1 phase (SW480 cells [2]; at the three time points (24, 48, 72 h)): higher than 66.6%
CDK4 expression versus untreated cells (CDK4): downregulation
CDK6 expression versus untreated cells (CDK6): downregulation
